Consider three compounds from patent US20140080847A1, “Compositions and Methods for Affecting Energy Balance, Body Composition, Fitness, and Well-Being” (OEJM Products Holdings, LLC, priority 2012, published 2014).

One data set relates to Wistar rats. Briefly: Acute toxicity and tolerance (MTD) of a single oral dose in Wistar rats. The data set is classed as in vivo, rat. As to the method:
(§1) The maximum tolerated dose (MTD) of orally administered 1,3-DMPA and 1,4-DMPA was determined in New Zealand white rabbits and Wistar rats.
(§2) Determination of MTD of orally-administered 1,3-DMPA in Wistar rats: The same general methods and procedures were followed as described above. This study involved forty animals randomly divided into four groups of ten animals (five male, five female) in each group. […] The MTD of a single oral dose of 1,3-DMPA was determined to be between 125 mg/kg and 250 mg/kg.
as §2, with “1,4-DMPA” for “1,3-DMPA”, “group. The groups were treated as follows: Group I (vehicle control—water), Group II (75 mg/kg), Group III (150 mg/kg), and Group IV (300 mg/kg). […] Gross pathological changes were not observed in the treated groups during necropsy.” for “group.”, “150” for “125”, “300 mg/kg in Wistar rats.” for “250 mg/kg.”

Assay in data set [1]: as above
The data set is classed as in vivo, rat. The following applies: both sexes, Wistar, in vivo; rat, single oral dose. As to the method:
as §1, §2
as §2, with “1,4-DMPA” for “1,3-DMPA”, “group. The groups were treated as follows: Group I (vehicle control—water), Group II (75 mg/kg), Group III (150 mg/kg), and Group IV (300 mg/kg). […] Gross pathological changes were not observed in the treated groups during necropsy.” for “group.”, “150” for “125”, “300 mg/kg in Wistar rats.” for “250 mg/kg.”

In data set [2] the test system is New Zealand white rabbits. Briefly: Acute toxicity and tolerance (MTD) of a single oral dose in New Zealand white rabbits. In kind it is in vivo, rabbit. As to the method: as §1
(§3) Determination of MTD of orally-administered 1,3-DMPA in New Zealand white rabbits: Twenty-four rabbits (twelve male, twelve female) were quarantined for at least seven days and then were randomly divided into four groups with six animals (3 male and 3 female) in each group. […] Animals were observed daily for fourteen days following administration. Each animal's body weight, food intake, mortality, and natural orifices were monitored. Clinical observations included skin condition, gait, movement, neurological disorders, eye condition, feces, convulsions, tremors, activity rate, restlessness, grooming, sleep, aggressiveness, salivation, diarrhea, respiration, appetite, thirst and urine conditions. Other observations included fur condition, mucous membranes, presence or absence of secretions and excretions and autonomic activity, lacrimation, piloerection, pupil size, posture, arched back, distended abdomen, fur, mucous membrane, presence or absence of secretions, tail elevation, motor activity, urination and defecation, and response to handling as well as the presence of clonic or tonic movements, repetitive circling, bizarre behavior, self-mutilation and walking backwards. At the conclusion of the fourteen day monitoring period, gross pathological examination was carried out on all animals. Heart, lung, liver, kidneys, spleen, stomach, large intestine, small intestine, brain and skin were examined for any macroscopic lesions.
(§4) Determination of MTD of orally-administered 1,4-DMPA in New Zealand white rabbits: Thirty rabbits (fifteen male, fifteen female) were quarantined for at least seven days and then were randomly divided into five groups with six animals (3 male and 3 female) in each group. […] Animals were observed daily for fourteen days following administration. Each animal's body weight, food intake, mortality, and natural orifices were monitored. As above, clinical observations included observation of natural orifices for any abnormal secretions and monitoring for the presence or absence of secretions and excretions, monitoring of mucous membranes, fur and skin condition, mortality, gait, posture, arched back, distended abdomen, movement and motor activity, neurological disorders, eye condition and pupil size, feces, convulsions, tremors, tail elevation, activity rate, restlessness, grooming, sleep, aggressiveness, salivation, diarrhea, respiration, appetite, thirst and urine conditions, autonomic activity, lacrimation, piloerection, response to handling, as well as the presence of clonic or tonic movements, repetitive circling, bizarre behavior, self-mutilation and walking backwards. At the conclusion of the fourteen day monitoring period, gross pathological examination was carried out on all animals. Heart, lung, liver, kidneys, spleen, stomach, large intestine, small intestine, brain and skin were examined for any macroscopic lesions.

Assay in data set [3]: as above
The data set is classed as in vivo, rabbit. The conditions noted are these: both sexes, New Zealand white, in vivo; rabbit, single oral dose. As to the method:
as §1, §3, §4

The next data set relates to cats and dogs. The conditions noted are these: early animal studies; cited from earlier work.
The next data set has as its system human(s). Briefly: Comparative effects of 1,3-DMPA and 1,4-DMPA compounds in humans (self-administration). The data set is classed as in vivo. As to the method:
The compounds 1,3-DMPA, racemic 1,4-DMPA, (R)-1,4-DMPA, and (S)-1,4-DMPA were administered to human(s). A non-smoking person of normal weight ingested 40 mg 1,3-DMPA as part of a dietary supplement (dietary ingredients: arginine α-ketoglutarate, creatine monohydrate, β-alanine, caffeine, 1,3-dimethylpentylamine HCL, schisandra cinensis (berry) extract (standardized for schizandrol A)); powder form), self-administered daily for at least seven days. […] To compare the effects of 1,3-DMPA to the effects of 1,4-DMPA, this individual later ingested 1,4-DMPA (racemic) for at least seven days at a dose of 60 mg per day, combined with 250 mg caffeine.
To compare the effects of (R)-1,4-DMPA, and (S)-1,4-DMPA, the individual described above ingested each enantiomer separately. Starting dose was ˜20 mg per day, which was increased to 30 mg per day if treatment was continued. Doses were combined with 250 mg caffeine as described above. […] The dose was increased to 30 mg per day; the total duration of treatment was at least three weeks. […] Ingestion of (S)-1,4-DMPA (25-30 mg per day) with caffeine produced different effects. […] The individual ceased self-administering (S)-1,4-DMPA after several days of experiencing the latter effects.

The mark [4] stands for this setting: male, 60 mg per day with 250 mg caffeine, at least seven days.
Setting [5] is: male, 20 then 30 mg per day with 250 mg caffeine, at least three weeks.
Setting [6] is: male, starting dose 20 mg per day with 250 mg caffeine.
Setting [7] is: male, 25-30 mg per day with caffeine, several days.

By LD50 is commonly meant the dose expected to kill half of the subjects tested. A higher LD50 goes with lower toxicity. One may read the MTD as the largest dose that counted as tolerated. A higher MTD goes with better tolerability. As to `CC(C)CCC(C)N` (racemic) [1,4-DMPA, 1,4-dimethylpentylamine], in the data set on Wistar rats (rat, 150 mg/kg and 300 mg/kg oral), the additional clinical signs result was “Tremors and convulsions”. In addition, the “examination of the animals that died” value with Wistar rats (rat, 300 mg/kg oral, died 4.5 hours post dosing) is “right median lobe consolidation and red foci on lungs, mild reddish discoloration of adrenals and spleen, mild enlargement of the spleen and glandular mucosa of the stomach showing hyperemia”. In addition, in the data set on Wistar rats (rat, 300 mg/kg oral, ten animals per group, within 4.5 hours), the mortality entry was “Four mortalities”. The mean body weight result in the data set with Wistar rats (rat, 75, 150, 300 mg/kg oral, study period, vs control) is listed as “consistently increased”. In addition, in the data set with Wistar rats (rat, 75 and 150 mg/kg oral), the mortality entry is “No mortalities”. The clinical signs result in the data set on Wistar rats (rat, all treated animals 75, 150, 300 mg/kg oral) was “piloerection, tail elevation, nasal discharge, tachycardia and hyperactivity”. Further, the “gross pathological changes at necropsy” value with Wistar rats (rat, treated groups 75-300 mg/kg oral) is “not observed”. Moreover, the feed consumption entry in the data set on Wistar rats (rat, treatment groups 75, 150, 300 mg/kg oral, first 48 hours post administration) is reported as “consume less feed”. For the same compound, in data set [1], the LD50 at 14 days came to 465 mg/kg and the MTD at 14 days lay within 150 to 300 mg/kg. Moreover, the clinical signs result in data set [2] (rabbit, 250 mg/kg and 350 mg/kg oral, all animals) is “tremors and tachycardia”. Also, the body weight result in data set [2] (rabbit, 350 mg/kg oral (Group V), study period) is recorded as “variation in body weight”. The “gross pathology of the animal that died” value in data set [2] (rabbit, 350 mg/kg oral, died after 36 hours) was “dark reddish discoloration of the lung suggesting congestion, slight reddish discoloration of the trachea, and mild petechial hemorrhages in the liver”. Moreover, the mortality entry in data set [2] (rabbit, 350 mg/kg oral, six animals per group, within 36 hours) is “one mortality”. Besides, in data set [2] (rabbit, 50, 125, 250 mg/kg oral), the mortality entry is on record as “No mortalities”. Moreover, the mean body weight result in data set [2] (rabbit, 50, 125, 250 mg/kg oral (all groups except Group V), 14 days, vs vehicle control) is “consistent increase”. Besides, the mean food intake entry in data set [2] (rabbit, all treatment groups 50-350 mg/kg, first 48 hours post treatment, vs control) was “reduced”. The gross pathological changes entry in data set [2] (rabbit, treated groups 50-350 mg/kg, except the animal that died) is “No gross pathological changes were observed”. The “toxicity and tolerance compared with 1,3-DMPA” value in data set [2] (single-dose rat and rabbit studies) was “less toxic and better tolerated than 1,3-DMPA”. For the same compound, the maximum tolerated dose (MTD) at 14 days in data set [3] was 250 to 350 mg/kg. Besides, the vasopressor activity entry in the data set on cats and dogs is “possesses vasopressor activity”. Further, in the data set on human(s) (setting [4]), the appetite entry is reported as “decreased appetite”, the “effect on heart rate compared with prior 1,3-DMPA” value is on record as “reduced effect on heart rate”, the “jitteriness or anxiousness compared with prior 1,3-DMPA” value is given as “noticeably reduced feelings of jitteriness or anxiousness” and the “level of CNS stimulation compared with 1,3-DMPA” value is given as “about the same level of CNS stimulation”. Also, in the data set with human(s) (setting [4]), the mood and vigor entry is “improved mood and vigor”; the “nature of the stimulatory effect” value is “increased focus and alertness and reduced fatigue”; the physical performance entry is recorded as “improved physical performance”. Also, the fat mass entry with human(s) (reports of individuals ingesting the compound) is listed as “reduction in fat mass”.
Consider `CC(C)CC[C@@H](C)N` [(R)-1,4-DMPA, (R)-1,4-dimethylpentylamine], for which, in the data set on human(s) (setting [5]), the CNS stimulation result was “CNS stimulation, including feelings of alertness, focus, and reduced fatigue”; the appetite result is “decreased appetite”; the “heart rate, jitteriness, nervousness, anxiety” value is given as “not associated with a noticeable increase in heart rate, jitteriness, nervousness, or anxiety”; the mood entry is “improved mood”. In addition, in the data set with human(s) (setting [5]), the physical performance result is on record as “improved physical performance”. Further, in the data set on human(s) (setting [6]), the CNS stimulant effect entry is “produced CNS stimulant effect” and the “jitteriness or pressor effect” value was “little or no jitteriness or pressor effect”.
Take `CC(C)CC[C@H](C)N` [(S)-1,4-DMPA, (S)-1,4-dimethylpentylamine]: in the data set with human(s) (setting [7]), the “alertness and focus in comparison to (R)-1,4-DMPA” value is “lessened alertness and focus”; the “heart rate and restlessness in comparison to (R)-1,4-DMPA” value was “increased heart rate and restlessness”.
